Assay results reported in paper PMC9696361, “Nanocrystallization Improves the Solubilization and Cytotoxic Effect of a Poly (ADP-Ribose)-Polymerase-I Inhibitor” (Polymers, 2022).
In brackets after ≈: the same amount, converted by molar mass.

How the values were obtained:
p53 = p53 by ELISA in MCF-7 cells; assay type: cell-based, human; settings: OLA 10 µgmL^−1, vs untreated control
Description: (§1) The p53, Caspase-3 and Caspase-9 activities were measured by ELISA kits following the manufacture’s protocol and reported works. The MCF-7 cells (5 × 10^4 cells/well) were seeded in 96-well plates. The seeded cells were treated with the AqS of OLA-pure and OLA-NCs. The concentration of OLA was kept 10 µgmL^−1, which was approximately near to the IC50 value of the OLA-NCs-2 (9.71 µgmL^−1). The untreated cells were served as control. All the treated cells were allowed to equilibrate at ambient temperature. Approximately 100 µL of p53, Caspase-3 and Caspase-9 reagents were transferred into the respective wells of the plate containing 100 µL of culture media. The plates were covered and stirred for 1–2 min at 500 rpm and then incubated at ambient temperature. After 1 h of incubation the OD was measured at 405 nm wavelength by microplate reader.

[1] = Saturation solubility of pure OLA and its NCs; assay type: physicochemical; settings: thermodynamic from solid
Description: The excess amount of pure OLA and NCs in triplicate were added into 1 mL of each solvent in glass vials. The mixtures were vortexed for 30 s and put into an orbital shaking (at 100 stroke per min) water bath (Julabo®, Allentown, PA, USA) maintained at 37 ± 1 °C for 72 h. Thereafter, vials were taken out and kept at room temperature for 24 h to settle down the undissolved drugs. Then, the supernatants were collected, filtered by 0.45 µ filtration unit (Millipore, Molsheim, France), diluted (if needed) and 30 µL was injected into HPLC-UV system for the quantification of the dissolved drugs.

Caspase-3 = Caspase-3 by ELISA in MCF-7 cells; assay type: cell-based, human; settings: OLA 10 µgmL^−1, vs untreated control
Description: as §1

Caspase-9 = Caspase-9 by ELISA in MCF-7 cells; assay type: cell-based, human; settings: OLA 10 µgmL^−1, vs untreated control
Description: as §1

P-glycoprotein (Pgp) = system: P-glycoprotein (Pgp); set-up: method as in PMID 24700236; settings: cited from earlier work
[2] = Oral pharmacokinetic study in rats; assay type: in vivo, Male Wistar rats
MCF-7 cells = assay: MTT or cell proliferation assay; assay type: cell-based; settings: Homo sapiens, MCF7, 48 h, 48 h of incubation, MTT
Description: The MCF-7 cells were procured from the American Type Cutler Collection (Manassas, VA, USA). Cells were grown in 50 cm^2 tissue culture flasks using “Dulbecco’s Modified Eagle Medium (DMEM) (UFC Biotech, Riyadh, Saudi Arabia)” at 37 °C in an incubator humidified by 5% CO2. The media was accompanied with 10% fetal bovine serum (Alpha Chemika, Mumbai, India), 1% mixture of Penicillin (100 units·mL^−1): Streptomycin (100 µg·mL^−1) by ThermoFischer Scientific, Waltham, MA, USA, Amphotericin-B (250 ngmL^−1) by Gibco® (Grand Island, NY, USA) and 1% of L-glutamine (BioWest, Riverside, MO, USA). The MTT was purchased from Sigma Aldrich, St. Louis, MO, USA. […]
The anticancer activity of pure drug (OLA)-AqS and OLA-NCs-2 against MCF-7 were examined by assessing the viability of the treated cells by MTT assay. […] The assay was done by observing the enzymatic reduction of a water-soluble dye [3-(4,5-dimethylthiazol-2-yl)-2,5-diphenyltetrazolium bromide] into an insoluble formazan, where the quantitation of formazan designates the relative viability of the cells. […] Optical density (OD) was measured at 570 nm using the spectrophotometric microplate reader (Synergy HT, BioTek Instruments, Winooskim, VT, USA). The cell viability (%) was calculated by Equation (4). […] The IC50 values were calculated as Log (inhibitor) versus normalized response on variable slopes through GraphPad Prism V-5.1. […]

[3] = set-up: method as in PMID 24700236; settings: cited from earlier work
[4] = Oral pharmacokinetic study in rats; assay type: in vivo, Male Wistar rats; remark: listed apart in the source
Description: Male Wistar rats were used for this study. The Standing Committee of Bioethics Research (SCBR) at Prince Sattam bin Abdulaziz University, Deanship of Scientific Research has granted the animal ethical approval (SCBR-030-2022) for in vivo studies on rats. Twelve rats were divided in two groups. Group-1 for OLA-AqS and Group-II for OLA-NCs. Each animal of the respective groups received OLA-AqS and OLA-NCs individually. Oral route was selected for the administration of all OLA formulations at 25 mg·kg^−1 of body weight equivalent dose of OLA was given orally to all animals. At predetermined time points (0.25, 0.5, 1, 3, 6 and 9 h) approximately 0.5 mL of blood was aspirated through retro orbital plexus from each animal. The samples were collected in heparinized tubes and centrifuged at 6000 rpm for 10 min and at 4 °C to obtain the plasma. Approximately 200 µL supernatant (plasma) was collected and stored at −80 °C till analysis was performed.
Previously reported RP-HPLC method was used for the analysis of OLA in the plasma samples [7, 20]. In brief, the HPLC system (Waters® 1500 Series, Milford, MA, USA) was fitted out with UV-dual absorbance detector (Waters® Model-2489), Binary pump (Waters® Moel-1525), Autosampler (Waters® Model-2707 plus). The HPLC-UV system was monitored and controlled by the “Breeze software”. A C18 Waters symmetry column (150 × 4.6 mm, 5 µm, particle size) was used for the elution of OLA and Paclitaxel (used as internal standard, IS). The mobile phase composed of ammonium acetate buffer (pH was adjusted to 3.5 by Orthophosphoric acid) and Methanol at 50:50 (v/v) was pumped at isocratic mode at the flow rate of 1 mL·min^−1. The UV-detection wavelength was 254 nm (for OLA) and 230 nm (for IS). The column heater temperature was set to 35 °C and the volume of injection was 30 µL.
Protein precipitation method (simple with high recovery) was used for the drug extraction from the collected plasma samples. The calibration curve samples were prepared by pipetting 50 μL of working stock solution of OLA (in methanol) and 20 μL of IS (20 µg/mL) into 140 μL of plasma and the mixture was vortexed for 30 s. Acetonitrile (290 μL) was added into the obtained mixture for protein precipitation, vortexed for 2 min and then centrifuged at 13,500 rpm for 10 min. Approximately 200 µL of the supernatant was collected and 30 µL of the supernatant was injected into HPLC system for the quantification of the drugs in the samples.
The results were represented as mean with standard deviation (± SD), unless otherwise indicated. The statistical analysis was performed using GraphPad Prism: Version-5.1 (GraphPad Software, Inc., San Diego, CA, USA). The pharmacokinetics parameters was calculated by “PK-Solver Software, Nanjing, China using MS-Excel-2013” through the non-compartmental approach. The comparative analysis of the data was accomplished by Student’s t-test and p < 0.05 was considered as statistically significant, unless otherwise indicated.

[5] = male, Wistar, rat, plasma, single oral dose 25 mg·kg^−1

- solubility ([1]; 0.1N HCl with 0.5% Soluplus, 37 °C, aqueous with cosolvent or surfactant or cyclodextrin, in 0.1N HCl (pH 1.2) with 0.5% Soluplus): 31.1 ± 3.9 µg/mL (≈ 71.6 µM)
- solubility ([1]; 0.1N HCl with 0.5% Tween-80, 37 °C, aqueous with cosolvent or surfactant or cyclodextrin, in 0.1N HCl (pH 1.2) with 0.5% Tween-80): 12.7 ± 3.9 µg/mL (≈ 29.2 µM)
- solubility ([1]; 37 °C, simulated gastric fluid, in 0.1N HCl (pH 1.2)): 7.1 ± 2.7 µg/mL (≈ 16.3 µM)
- solubility at 72 h ([1]; phosphate buffer (PBS) with 0.5% Soluplus, pH 7.4, aqueous with cosolvent or surfactant or cyclodextrin, in PBS with 0.5% Soluplus, 37 °C): 35.6 ± 7.2 µg/mL (≈ 81.9 µM)
- solubility at 72 h ([1]; phosphate buffer (PBS) with 0.5% Tween-80, pH 7.4, aqueous with cosolvent or surfactant or cyclodextrin, in PBS with 0.5% Tween-80, 37 °C): 14.2 ± 5.1 µg/mL (≈ 32.7 µM)
- solubility at 72 h ([1]; phosphate buffer (PBS), pH 7.4, aqueous buffer, in PBS, 37 °C): 9.3 ± 2.4 µg/mL (≈ 21.4 µM)
- AUC(0-t) ([2]; male, Wistar, rat, plasma, single oral dose 25 mg·kg^−1, read-out: AUC0–12 h): 882 ± 137 ng·h/mL
- Last plasma sample in which the drug was detected ([2]; oral, undetected in 10 h and 12 h samples): up to 8 h
- IC50 (MCF-7 cells): 28.4 µg/mL
- AUC(0-inf) [4, 5]: 913 ± 138 ng·h/mL
- Tmax [4, 5]: 2 h
- half-life [4, 5]: 1.36 ± 0.04 h
- MRT inf ([4]; male, Wistar, rat, plasma, single oral dose 25 mg·kg^−1, read-out: MRT0-∞): 3.37 ± 0.03 h
- Cmax ([4]; male, Wistar, rat, single oral dose 25 mg·kg^−1, plasma): 278 ± 46.5 ng/mL
- AUMC0-∞ ([4]; single oral dose 25 mg·kg^−1): 3081.17 ± 471.32 ng·mL^−1·h^2
- Cl/F ([4]; single oral dose 25 mg·kg^−1, listed as OLA-Pure): 6.94 ± 0.96 L/h
- Cl/F ([4]; single oral dose 25 mg·kg^−1, listed as OLA-pure): 6.94 L/h
SMILES: O=C(c1cc(Cc2n[nH]c(=O)c3ccccc23)ccc1F)N1CCN(C(=O)C2CC2)CC1 [OLA, Olaparib]
- p53 protein expression, times higher than control (p53): 7.2 times
- Increased activities of Caspase-3 vs control (Caspase-3): approximately 4.3 folds
- Increased expression of Caspase-9 vs control (Caspase-9): ~2 folds
- Concentration at which the Pgp-mediated efflux is saturated (P-glycoprotein (Pgp)): > 260 µM
- Solubility at intestinal fluid pH [3]: 0.16 mg·mL^−1
